# Measured values from ChEMBL document CHEMBL1201862, “PubChem BioAssay data set” (2004).
# Active and inactive are the calls of the source.
# Columns and labels:
# BJ [1] = assay: cells; format: functional, cell-based; settings: Homo sapiens
# BJ [2] = assay: BJ-TERT fibroblast viability loss – cell-based, RAS-independent, luminescence, dose response (AID 1933); format: functional; settings: Homo sapiens
# BJ [3] = assay: BJ-TERT-LT-ST fibroblast viability loss – cell-based, RAS-independent, luminescence, dose response (AID 1935); format: functional; settings: Homo sapiens;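 further: BJ fibroblasts immortalized with TERT plus LT and ST oncogenes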
# HeLa = assay: Cytotoxicity counterscreen assay for transcriptional activators of heat shock protein 70 (Hsp70). [Related pubchem assays: 1203, 1252 ]; format: functional; settings: Homo sapiens;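 further: cells exposed to compound for 16 hours before readout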
# [4] = DRD fibroblast viability loss – cell-based, non-viral oncogenic, luminescence, dose response (AID 1934); format: functional; settings: Homo sapiens
# [5] = target: T1, C-C chemokine receptor type 6 (Homo sapiens, UniProt P51684); assay: antagonism of CCR6 beta-arrestin recruitment – cell-based, luminescent beta-arrestin readout, dose response (AID 504728); format: functional
# T1 sequence (P51684 whole entry): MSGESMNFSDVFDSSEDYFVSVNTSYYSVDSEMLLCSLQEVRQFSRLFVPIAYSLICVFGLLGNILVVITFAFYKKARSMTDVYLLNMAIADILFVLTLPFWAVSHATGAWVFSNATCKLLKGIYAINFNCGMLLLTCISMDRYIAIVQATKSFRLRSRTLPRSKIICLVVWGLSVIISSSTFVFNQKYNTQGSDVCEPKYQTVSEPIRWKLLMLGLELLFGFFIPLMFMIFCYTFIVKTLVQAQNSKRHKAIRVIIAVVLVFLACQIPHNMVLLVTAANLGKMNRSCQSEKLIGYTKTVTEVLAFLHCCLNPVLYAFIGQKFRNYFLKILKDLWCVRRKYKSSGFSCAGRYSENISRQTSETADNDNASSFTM
# [6] = target: T2, Polyadenylate-binding protein 1 (Homo sapiens, UniProt P11940); assay: MLLE domain peptide-binding blockers, IC50 – biochemical, fluorescence polarization, FITC-PAM2 peptide, dose response (AID 602259); format: functional; settings: read-out: IC50_Mean
# T2 sequence (P11940 whole entry, the tested form may be a part): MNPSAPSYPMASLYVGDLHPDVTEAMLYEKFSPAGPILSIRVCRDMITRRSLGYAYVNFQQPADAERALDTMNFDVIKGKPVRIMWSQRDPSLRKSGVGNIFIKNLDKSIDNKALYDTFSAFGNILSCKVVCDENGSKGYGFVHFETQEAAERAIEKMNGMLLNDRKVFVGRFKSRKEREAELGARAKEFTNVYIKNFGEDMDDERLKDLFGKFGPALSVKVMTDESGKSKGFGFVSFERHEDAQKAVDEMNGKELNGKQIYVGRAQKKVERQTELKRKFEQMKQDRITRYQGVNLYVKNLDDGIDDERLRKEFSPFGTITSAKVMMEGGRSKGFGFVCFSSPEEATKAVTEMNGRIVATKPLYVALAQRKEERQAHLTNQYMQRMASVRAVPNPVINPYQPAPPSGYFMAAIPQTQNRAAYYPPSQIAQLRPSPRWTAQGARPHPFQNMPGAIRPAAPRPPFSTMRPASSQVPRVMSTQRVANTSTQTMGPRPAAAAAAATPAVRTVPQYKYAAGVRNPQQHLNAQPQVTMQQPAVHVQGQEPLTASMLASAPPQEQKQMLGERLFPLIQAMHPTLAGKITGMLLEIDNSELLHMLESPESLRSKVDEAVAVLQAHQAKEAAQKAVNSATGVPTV
# [7] = target: T2, Polyadenylate-binding protein 1; assay: MLLE binding blockers, Cy5 peptide tracer – biochemical, fluorescence polarization, Cy5-PAM2 peptide, secondary, miRNA deadenylation inhibitor project, dose response (AID 602260); format: functional; settings: read-out: IC50_Mean
# Beta-galactosidase [8] = target: T3, Beta-galactosidase (Escherichia coli, UniProt Q8VNN2); assay: detection-enzyme interference by beta-gal modulators – biochemical, E. coli enzyme, set 3, artefact control for CCR6 antagonist project, dose response (AID 504712); format: functional
# Beta-galactosidase [9] = target: T3, Beta-galactosidase; format: functional
# [10] = target: T4, Kappa-type opioid receptor (Homo sapiens, UniProt P41145); format: functional
# T4 sequence (P41145 whole entry): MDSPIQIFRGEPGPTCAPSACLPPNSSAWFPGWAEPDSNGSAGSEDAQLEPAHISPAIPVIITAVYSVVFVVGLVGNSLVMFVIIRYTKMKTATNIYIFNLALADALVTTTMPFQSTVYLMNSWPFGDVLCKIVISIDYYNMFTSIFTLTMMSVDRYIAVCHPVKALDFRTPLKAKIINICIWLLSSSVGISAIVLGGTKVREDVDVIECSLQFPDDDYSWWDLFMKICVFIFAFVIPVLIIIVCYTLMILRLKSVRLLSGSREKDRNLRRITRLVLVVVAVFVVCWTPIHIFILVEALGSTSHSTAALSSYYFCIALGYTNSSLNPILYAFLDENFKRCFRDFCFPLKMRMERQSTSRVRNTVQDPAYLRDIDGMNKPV
# [11] = target: T4, Kappa-type opioid receptor; format: functional; remark: listed apart in the source
# Trypsin = Trypsin (Sus scrofa, UniProt P00761); assay: trypsin protease activity blockade – biochemical, quenched peptide fluorescence, cherry-pick, selectivity assay for Rce1 protease inhibitor project, dose response (AID 488789)
# [12] = target: T5, Type-1 angiotensin II receptor (Homo sapiens, UniProt P30556); assay: agonist activity at AGTR1 – cell-based, uHTS hits, selectivity assay for APJ receptor agonist project, dose response (AID 488865); format: functional;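 further: beta-arrestin recruitment to AT1 measured by enzyme fragment complementation luminescence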
# T5 sequence (P30556 whole entry): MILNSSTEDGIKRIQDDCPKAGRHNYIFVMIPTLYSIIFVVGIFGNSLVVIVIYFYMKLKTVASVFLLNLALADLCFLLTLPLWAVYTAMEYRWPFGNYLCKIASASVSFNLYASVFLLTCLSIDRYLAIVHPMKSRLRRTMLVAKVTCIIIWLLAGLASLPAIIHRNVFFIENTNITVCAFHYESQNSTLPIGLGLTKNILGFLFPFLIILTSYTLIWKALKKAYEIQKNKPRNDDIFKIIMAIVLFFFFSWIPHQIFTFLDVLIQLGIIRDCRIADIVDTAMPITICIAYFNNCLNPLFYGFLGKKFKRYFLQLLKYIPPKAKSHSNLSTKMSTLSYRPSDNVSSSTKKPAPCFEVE
# [13] = target: T6, DNA repair and recombination protein RAD54-like (Homo sapiens, UniProt Q92698); assay: RAD54 Holliday junction migration blockers – biochemical, fluorescence, cherry-picked samples, dose series, confirmation (AID 651657); format: functional
# T6 sequence (Q92698 whole entry): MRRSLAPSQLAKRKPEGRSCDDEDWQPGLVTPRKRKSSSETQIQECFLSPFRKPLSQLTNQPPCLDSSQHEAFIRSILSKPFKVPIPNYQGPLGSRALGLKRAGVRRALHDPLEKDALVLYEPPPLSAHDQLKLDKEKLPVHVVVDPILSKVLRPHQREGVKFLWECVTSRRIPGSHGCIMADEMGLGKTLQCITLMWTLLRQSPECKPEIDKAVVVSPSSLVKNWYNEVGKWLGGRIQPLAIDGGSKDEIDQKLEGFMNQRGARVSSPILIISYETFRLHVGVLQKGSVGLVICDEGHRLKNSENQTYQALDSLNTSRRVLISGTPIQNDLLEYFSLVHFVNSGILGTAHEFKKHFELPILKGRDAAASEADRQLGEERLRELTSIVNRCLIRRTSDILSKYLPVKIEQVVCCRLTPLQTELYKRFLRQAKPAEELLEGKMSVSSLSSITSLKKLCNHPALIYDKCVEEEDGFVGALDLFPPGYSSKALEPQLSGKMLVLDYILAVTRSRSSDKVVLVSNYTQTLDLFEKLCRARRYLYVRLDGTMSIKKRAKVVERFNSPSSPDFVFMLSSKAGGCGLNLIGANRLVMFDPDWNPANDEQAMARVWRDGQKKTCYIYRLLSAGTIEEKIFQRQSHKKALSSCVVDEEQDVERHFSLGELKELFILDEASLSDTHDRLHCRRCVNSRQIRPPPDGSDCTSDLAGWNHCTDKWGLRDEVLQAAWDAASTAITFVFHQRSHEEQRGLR
# H9c2 = assay: cells; format: functional, cell-based; settings: Rattus norvegicus, H9c2, Myocardium;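 further: confirmatory concentration-response retest of ultra-high-throughput screening hits for modulation of myocardial damage; cell death induced by hydrogen peroxide oxidative stress; compound pretreatment for 60 min then peroxide exposure for 2 h; potency is for protecting the cells against peroxide damage rather than for killing them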
# [14] = viability loss in THP-1 monocytes – THP-1 cells, cytotoxicity control for Vif-APOBEC3G degradation inhibitor project, dose response (AID 1117359); format: functional; settings: THP-1
# [15] = target: T7, Voltage-gated N-type calcium channel alpha-1B subunit/Amyloid beta A4 precursor protein-binding family A member 1 (Homo sapiens, UniProt Q00975+Q02410); format: protein assay
# Large T antigen = Large T antigen (Simian virus 40, UniProt P03070); format: functional, Betapolyomavirus macacae;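 further: Confirmatory-stage PubChem screen for compounds that inhibit SV40 T antigen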
# [16] = target: T7, Voltage-gated N-type calcium channel alpha-1B subunit/Amyloid beta A4 precursor protein-binding family A member 1; format: protein assay; remark: listed apart in the source
# [17] = target: Eukaryotic translation initiation factor 4E (Mus musculus, UniProt P63073); assay: blockers of eIF4G binding by eIF4E – biochemical, TR-FRET, dose response (AID 855); format: functional;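 further: potency for disrupting eIF4E binding to eIF4GI seen as loss of FRET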
# cells [18] = assay: cells
# [19] = THP-1 cell cytotoxicity, dose response, cytotoxicity control for non-replicating M. tuberculosis project (AID 489025); format: functional
# cells [20] = format: functional
# [21] = target: Peroxisome proliferator-activated receptor gamma/Nuclear receptor coactivator 3 (Homo sapiens, UniProt P37231); format: functional;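 further: agonist potency for raising coactivator recruitment to the receptor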
# [22] = target: Peroxisome proliferator-activated receptor gamma/Nuclear receptor coactivator 1 (Homo sapiens, UniProt P37231); format: functional;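 further: agonist potency as compounds enhance coactivator SRC-1 recruitment to PPARgamma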
# Sequence of Peroxisome proliferator-activated receptor gamma/Nuclear receptor coactivator 1 (P37231 whole entry): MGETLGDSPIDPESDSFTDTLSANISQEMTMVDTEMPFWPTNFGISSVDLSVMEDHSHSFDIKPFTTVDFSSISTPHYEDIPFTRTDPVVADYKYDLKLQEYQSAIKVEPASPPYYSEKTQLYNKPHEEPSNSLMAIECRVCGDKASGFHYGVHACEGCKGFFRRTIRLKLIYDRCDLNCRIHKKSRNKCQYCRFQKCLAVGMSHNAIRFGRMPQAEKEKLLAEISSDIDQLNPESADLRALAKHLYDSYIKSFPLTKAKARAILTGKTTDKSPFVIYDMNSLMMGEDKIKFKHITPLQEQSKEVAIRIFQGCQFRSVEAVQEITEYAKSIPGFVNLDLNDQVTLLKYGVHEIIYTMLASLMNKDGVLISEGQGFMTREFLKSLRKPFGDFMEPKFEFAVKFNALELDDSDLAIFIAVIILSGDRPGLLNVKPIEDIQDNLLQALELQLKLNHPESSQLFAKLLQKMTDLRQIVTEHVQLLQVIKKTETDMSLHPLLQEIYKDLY
# Sequence of Peroxisome proliferator-activated receptor gamma/Nuclear receptor coactivator 1 (Q15788 whole entry, further chain): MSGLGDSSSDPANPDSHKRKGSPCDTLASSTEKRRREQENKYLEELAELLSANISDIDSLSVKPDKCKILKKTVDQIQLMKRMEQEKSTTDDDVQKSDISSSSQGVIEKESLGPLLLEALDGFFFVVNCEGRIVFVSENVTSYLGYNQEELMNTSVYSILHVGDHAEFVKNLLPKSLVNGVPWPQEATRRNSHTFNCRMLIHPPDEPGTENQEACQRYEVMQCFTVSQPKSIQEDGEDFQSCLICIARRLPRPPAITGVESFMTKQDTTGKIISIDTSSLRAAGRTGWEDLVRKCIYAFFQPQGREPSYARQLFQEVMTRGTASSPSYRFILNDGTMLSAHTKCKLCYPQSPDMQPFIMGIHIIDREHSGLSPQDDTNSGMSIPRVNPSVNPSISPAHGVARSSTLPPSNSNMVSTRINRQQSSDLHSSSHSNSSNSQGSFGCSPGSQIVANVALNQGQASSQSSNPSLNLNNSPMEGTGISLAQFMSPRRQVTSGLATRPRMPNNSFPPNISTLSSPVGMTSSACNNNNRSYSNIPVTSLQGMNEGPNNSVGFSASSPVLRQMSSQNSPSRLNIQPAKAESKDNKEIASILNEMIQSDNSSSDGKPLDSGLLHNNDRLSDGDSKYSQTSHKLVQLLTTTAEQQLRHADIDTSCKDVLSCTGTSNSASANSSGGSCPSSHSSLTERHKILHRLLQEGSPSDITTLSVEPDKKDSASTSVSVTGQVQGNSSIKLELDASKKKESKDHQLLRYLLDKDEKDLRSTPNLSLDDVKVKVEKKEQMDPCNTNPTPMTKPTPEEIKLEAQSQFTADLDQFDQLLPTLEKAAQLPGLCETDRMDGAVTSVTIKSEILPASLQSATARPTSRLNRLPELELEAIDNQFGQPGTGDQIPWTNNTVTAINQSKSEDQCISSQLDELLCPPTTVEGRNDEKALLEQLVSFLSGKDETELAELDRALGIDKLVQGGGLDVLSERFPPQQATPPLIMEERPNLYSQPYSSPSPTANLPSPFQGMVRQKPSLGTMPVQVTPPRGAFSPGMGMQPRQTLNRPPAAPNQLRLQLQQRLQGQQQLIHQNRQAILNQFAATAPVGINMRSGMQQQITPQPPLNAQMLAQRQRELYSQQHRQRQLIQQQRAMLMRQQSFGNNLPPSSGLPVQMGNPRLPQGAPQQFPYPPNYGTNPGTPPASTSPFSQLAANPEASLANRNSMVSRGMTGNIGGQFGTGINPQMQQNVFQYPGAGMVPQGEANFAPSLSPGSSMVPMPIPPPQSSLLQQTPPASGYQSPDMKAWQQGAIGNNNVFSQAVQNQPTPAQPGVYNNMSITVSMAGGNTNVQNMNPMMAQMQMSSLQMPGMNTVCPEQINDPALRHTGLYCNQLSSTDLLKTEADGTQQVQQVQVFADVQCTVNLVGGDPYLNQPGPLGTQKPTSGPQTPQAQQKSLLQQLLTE
# [23] = target: Peroxisome proliferator-activated receptor gamma/Nuclear receptor coactivator 2 (Homo sapiens, UniProt P37231); format: functional;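 further: agonist potency for raising coactivator recruitment to the receptor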
# Sequence of Peroxisome proliferator-activated receptor gamma/Nuclear receptor coactivator 2 (P37231 whole entry): as the sequence (P37231 whole entry) above
# Sequence of Peroxisome proliferator-activated receptor gamma/Nuclear receptor coactivator 2 (Q15596 whole entry, further chain): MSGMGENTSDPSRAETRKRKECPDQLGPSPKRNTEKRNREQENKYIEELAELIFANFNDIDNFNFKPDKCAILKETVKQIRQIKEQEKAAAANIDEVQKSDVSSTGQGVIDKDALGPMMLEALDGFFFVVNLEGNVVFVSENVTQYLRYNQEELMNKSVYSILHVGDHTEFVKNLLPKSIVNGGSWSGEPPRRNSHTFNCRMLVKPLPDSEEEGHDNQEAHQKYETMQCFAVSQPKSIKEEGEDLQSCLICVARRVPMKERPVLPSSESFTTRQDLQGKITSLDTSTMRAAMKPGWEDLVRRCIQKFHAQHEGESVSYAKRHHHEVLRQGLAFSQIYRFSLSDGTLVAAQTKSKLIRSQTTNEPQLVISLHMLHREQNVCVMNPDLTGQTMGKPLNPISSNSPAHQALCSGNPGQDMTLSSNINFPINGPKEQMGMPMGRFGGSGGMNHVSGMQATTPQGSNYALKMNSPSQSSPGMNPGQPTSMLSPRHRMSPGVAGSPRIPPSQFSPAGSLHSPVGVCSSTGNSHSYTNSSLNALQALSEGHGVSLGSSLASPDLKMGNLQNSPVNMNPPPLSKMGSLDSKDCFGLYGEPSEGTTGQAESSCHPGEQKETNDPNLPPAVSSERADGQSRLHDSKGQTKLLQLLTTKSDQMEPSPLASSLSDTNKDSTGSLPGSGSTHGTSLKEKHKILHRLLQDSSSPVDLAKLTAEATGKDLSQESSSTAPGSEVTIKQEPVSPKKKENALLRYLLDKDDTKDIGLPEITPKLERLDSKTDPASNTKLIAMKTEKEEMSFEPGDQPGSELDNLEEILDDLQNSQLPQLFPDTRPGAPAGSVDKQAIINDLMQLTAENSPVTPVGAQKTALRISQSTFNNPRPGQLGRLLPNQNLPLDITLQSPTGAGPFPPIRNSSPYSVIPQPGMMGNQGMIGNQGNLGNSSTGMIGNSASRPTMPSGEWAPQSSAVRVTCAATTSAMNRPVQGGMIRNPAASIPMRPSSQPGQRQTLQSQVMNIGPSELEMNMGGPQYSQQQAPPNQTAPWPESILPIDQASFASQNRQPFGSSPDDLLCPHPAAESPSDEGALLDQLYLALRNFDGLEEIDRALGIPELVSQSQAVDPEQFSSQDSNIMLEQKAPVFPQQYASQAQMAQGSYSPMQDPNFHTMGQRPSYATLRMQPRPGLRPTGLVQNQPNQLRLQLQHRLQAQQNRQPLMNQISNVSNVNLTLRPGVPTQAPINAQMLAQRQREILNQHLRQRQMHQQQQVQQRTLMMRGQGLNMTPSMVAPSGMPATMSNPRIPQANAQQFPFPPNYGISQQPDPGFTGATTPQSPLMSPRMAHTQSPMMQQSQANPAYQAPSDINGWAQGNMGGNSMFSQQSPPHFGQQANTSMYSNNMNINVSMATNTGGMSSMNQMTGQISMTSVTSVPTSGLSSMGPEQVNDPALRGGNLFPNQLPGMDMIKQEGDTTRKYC
# [24] = target: FAD-linked sulfhydryl oxidase ALR (Homo sapiens, UniProt P55789); assay: ALR-catalysed DTT oxidation blockers – biochemical, H2O2 detection, luminescence, cherry-pick, dose response (AID 493248)
# [25] = target: T8, Corticotropin-releasing factor receptor 2/Corticotropin-releasing factor-binding protein (Homo sapiens, UniProt P24387+Q13324); assay: activators of CRF receptor 2 with binding protein – uHTS hits, confirmation (AID 602473); format: functional; settings: read-out: EC50_Mean
# T8 sequence (Q13324 whole entry): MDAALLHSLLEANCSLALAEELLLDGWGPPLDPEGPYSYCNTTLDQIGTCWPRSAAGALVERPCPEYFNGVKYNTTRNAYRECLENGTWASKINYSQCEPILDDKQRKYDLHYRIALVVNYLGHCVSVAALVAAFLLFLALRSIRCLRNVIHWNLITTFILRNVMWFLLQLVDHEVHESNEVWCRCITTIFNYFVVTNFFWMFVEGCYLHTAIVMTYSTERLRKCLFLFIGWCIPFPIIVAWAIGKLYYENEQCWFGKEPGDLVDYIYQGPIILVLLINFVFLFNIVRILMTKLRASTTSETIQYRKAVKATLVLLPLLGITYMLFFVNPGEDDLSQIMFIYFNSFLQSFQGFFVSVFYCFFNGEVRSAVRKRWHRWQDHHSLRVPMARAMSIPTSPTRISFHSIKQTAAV
# T8 sequence (P24387 whole entry): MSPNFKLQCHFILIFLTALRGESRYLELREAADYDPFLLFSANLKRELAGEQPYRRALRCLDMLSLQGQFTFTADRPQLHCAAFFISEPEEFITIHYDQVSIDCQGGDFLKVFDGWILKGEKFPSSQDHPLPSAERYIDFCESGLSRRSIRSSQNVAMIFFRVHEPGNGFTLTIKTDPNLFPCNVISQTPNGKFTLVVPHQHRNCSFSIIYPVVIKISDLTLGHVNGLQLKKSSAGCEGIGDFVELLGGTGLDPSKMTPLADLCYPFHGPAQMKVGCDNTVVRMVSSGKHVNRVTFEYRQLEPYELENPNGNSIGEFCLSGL
# [26] = mitochondrial function rescue without frataxin homolog – Friedreich's ataxia, plus single-dose screen, dose response (AID 1465); format: functional;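 further: yeast depleted of Yfh1p frataxin homolog grown on glycerol needing respiration; WST-1 tetrazolium dye reduction as measure of cellular dehydrogenase metabolic activity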
# [27] = target: Long-chain-fatty-acid--AMP ligase FadD28 (Mycobacterium tuberculosis, UniProt P9WQ59); assay: Fluorescence polarization aasay to screen for inhibitors that compete for the binding of FadD28 to a bisubstrate Measured in Biochemical System Using Plate Reader - 2147-01_Inhibitor_Dose_CherryPick_Activity.; format: functional, Mycobacterium tuberculosis H37Rv
# Integrin alpha-L = Integrin alpha-L (Mus musculus, UniProt P24063); assay: modulators of CD8 T cell-vesicle binding, dose response, powder samples, mouse 2C CD8+ cells (AID 504565); format: functional
# Cytochrome P450 2C9 = Cytochrome P450 2C9 (Homo sapiens, UniProt P11712); settings: Potency
smiles,measurement,setting,value
COc1ccc(/C=C/C(=O)c2cc(F)ccc2OC(=O)c2ccccc2OC)cc1OC,EC50,BJ [1],2.76 µM (active)
same,EC50,BJ [2],1.14 µM (inconclusive)
same,EC50,BJ [3],1.41 µM (active)
same,CC50,HeLa,14.6 µM (not active)
same,EC50,[4],2.56 µM (active)
COc1ccc(NC(=S)NC(NC(=O)c2ccccc2Cl)C(Cl)(Cl)Cl)c([N+](=O)[O-])c1 (stereo not drawn),IC50,[5],> 66.6 µM (inactive)
same,IC50,[6],> 66 µM (inactive)
same,IC50,[7],> 66 µM (inactive)
same,IC50,Beta-galactosidase [8],> 66.6 µM (inactive)
same,EC50,Beta-galactosidase [9],> 31.5 µM (inactive)
same,IC50,[10],7.41 µM (active)
same,IC50,[11],5.11 µM
Nc1c(C(=O)NCc2ccccc2)sc2nc(N3CCOCC3)c3c(c12)CCCC3,AC50,Trypsin,14.8 µM (active)
COc1cccc2sc3ccc(NCCC4CCCN4C)cc3c(=O)c12 (stereo not drawn),EC50,[12],> 100 µM (inactive)
same,AC50,[13],22.8 µM (active)
CCOc1ccc2nc(O)c(CN(CCO)C(c3nnnn3C3CCCCC3)C(C)C)cc2c1 (stereo not drawn),IC50,H9c2,> 79 µM (inactive)
same,EC50,[12],> 100 µM (inactive)
O=C(CSc1nc2ccccc2n1CCc1ccccc1)c1ccc(O)c(O)c1,CC50,[14],> 40 µM (active)
same,IC50,[15],9.4 µM (active)
same,IC50,Large T antigen,35.9 µM (active)
same,IC50,[16],> 50 µM (inactive)
same,IC50,[17],23.7 µM (active)
COc1ccccc1CNC(=O)C1CCN(S(=O)(=O)c2cccc3nonc23)CC1,IC50,cells [18],3.4 µM (active)
CC1C/C(=C/c2ccccn2)C(=O)/C(=C/c2ccccn2)C1 (stereo not drawn),CC50,HeLa,> 1.22 µM (not active)
O=C(CCS(=O)(=O)c1ccccc1)Nc1nnc(-c2ccco2)o1,CC50,[19],> 40 µM (active)
same,IC50,cells [20],48.6 µM (active)
CC(C)(C)C1CCc2c(sc(NC(=O)c3cccs3)c2C(N)=O)C1 (stereo not drawn),EC50,[21],> 79.4 µM (not active)
same,EC50,[22],> 79.4 µM (not active)
same,EC50,[23],> 79.4 µM (not active)
O=C(NN/C=C1\C(=O)N(c2ccc(Cl)cn2)C(=O)c2ccccc21)c1ccncc1,AC50,[24],5.43 µM (active)
same,EC50,[25],6.13 µM (active)
same,EC50,[26],> 100 µM (active)
same,AC50,[27],> 100 µM (inactive)
O=C(NCC1CCCCC1)c1ccc(Cl)c(S(=O)(=O)N2CCOCC2)c1,EC50,Integrin alpha-L,20.1 µM (active)
COc1ccc([C@@H]2OC[C@]3(COC(C)=O)[C@H](C)C=C(C)[C@@H]2[C@H]3C)cc1,AC50,Cytochrome P450 2C9,20 µM (inconclusive)
CCOCCn1/c(=N/C(=O)c2cc(Cl)sc2Cl)sc2cc(S(N)(=O)=O)ccc21,EC50,[21],16.8 µM (not active)
same,EC50,[22],13.4 µM (not active)
same,EC50,[23],14 µM (not active)
